Laboratory results reported in patent publication US12102672B2, “Immunogenic sequences from a phage tail length tape measure protein, bacteria expressing the same and their use in treating a cancer” (INSTITUT GUSTAVE ROUSSY, priority 2017, dated 2024).

Legend:
[1] = system: prophage 1 and 2 of EH13144; details: mitomycin C 1 μg/ml; 37° C. and 42° C.; without capside disruption
From the text: Protocol for phage excision by mitomycin C.
PCR was run to detect specific sequences of the prophage 1 or 2.

[2] = target: HLA-A*0201 with TMP peptide […] on peptide-pulsed autologous cells (human; Enterococcus hirae 13144 (prophage 2, TMP))
[3] = target: HLA-A*0201 with TMP peptide … on peptide-pulsed autologous cells (human; Enterococcus hirae 13144 (prophage 2, TMP))
[4] = target: fluorescent H-2K^b/[…] (SEQ ID No: 13) tetrameric complex (mouse; Enterococcus hirae 13144 (39.2 kb prophage, TMP)) (UniProt P01901); assay: flow cytometry with the fluorescent H-2K^b/… tetramer
[5] = system: MCA-205 sarcoma; assay: MCA205 sarcoma growth in antibiotic-treated SPF C57BL/6 mice, CTX plus oral gavage with bacteria; format: in vivo; details: ATB 3 days, CTX 100 mg/kg x3, weekly oral gavages, FIG. 27B
Procedure: (§1) A and C. Experimental setting. […] D-E. Ex vivo recall assays. […] Each dot represents one mouse.
A-B. Prophylactic vaccinations. […] C-D. Therapeutic settings.
Mice were treated during 3 days with an antibiotic solution (ATB) containing ampicillin (1 mg/ml), streptomycin (5 mg/ml), colistin (1 mg/ml) (Sigma-Aldrich) and vancomycin (0.25 mg/ml) added in the sterile drinking water of mice. Antibiotic activity was confirmed by cultivating fecal pellets resuspended in BHI+15% glycerol at 0.1 g/ml on COS (BD Columbia Agar with 5% Sheep Blood) plates for 48 h at 37° C. in aerobic and anaerobic conditions. In the context of bacterial transplantation experiments, mice received 3 days of ATB before undergoing bacterial transplantation the next day by oral gavage using animal feeding needles.
Syngeneic C57BL/6 mice were implanted with 0.8×10^6 MCA-205 WT sarcoma cells subcutaneously and treated intraperitoneally (i.p.) when tumors reached 20 to 35 mm^2 in size with CTX (100 mg/kg). Depending on the experimental setting, mice were injected once or 3 times at 1-week interval. Tumor size was routinely monitored every 3 days by means of a caliper.
Enterococcus hirae 13144 were originally isolated from spleens of SPF mice treated with CTX in our laboratory.

[6] = system: splenic CD8+ T cells; assay: IFNγ ELISpot recall assay of splenic CD8+ T cells with DCs pulsed with heat-inactivated bacteria or peptides; format: cell-based, mice
Procedure: FIG. 9. Experimental immunization protocols to elucidate the immunogenicity of EH peptides. […] 5 days after the first oral gavage, mice are treated with CTX. One week post-CTX, CD8+ T cells are isolated from spleen. These CD8+ T cells are incubated with dendritic cells (DCs) pulsed with 20 μg/ml of peptides (during 1 hour) or with heat-inactivated bacteria (during 6 hours). Inactivation of bacteria consists in incubation at 65° C. during 2 hours. After 24 hours of culture, ELIspot of IFNγ is performed.
FIG. 10. Cross-reactivity between the two E. hirae 708 and 13144 species for CTL splenic reactivity. Number of IFNγ spot representing IFNγ-secreting CD8+ T cells after co-culture with DCs pre-incubated with or without heat-inactivated bacteria (708, 13144, EH17 and L. plantarum).
FIG. 13. Peptides from group 7 containing the TMP1 and TMP2 epitopes activate CD8+ T cells from spleen of mice immunized against E. hirae 13144. Number of IFNγ spot, representing IFNγ-secreting CD8+ T cells, after incubation with DCs pulsed with 13 different group of peptide (Table 6). Just group n° 1 (A) and group n° 7 (B) are shown. (C, E) Number of IFNγ spot, representing IFNγ-secreting CD8+ T cells, after incubation with DCs pulsed with 4 peptides belong to group n° 7 (in table 7). (D) Sequence alignment of TMP1 and TMP2 of EH10815 (SEQ ID Nos: 228 and 229 respectively) compared to EH13144 (fragments of SEQ ID NO: 1) at the level of immunogenic peptides. Amino acid sequence […] corresponds to SEQ ID No: 13. Amino acid sequence […] corresponds to SEQ ID No: 217. Amino acid sequence […] corresponds to SEQ ID Nos: 14. Amino acid sequence AlIEFIKGL corresponds to SEQ ID No: 218. (E) In vitro reactivity of splenic CTL in a recall response to TMP1 and TMP2 as well as Group7 after in vivo immunization with other strains of EH.
as §1

[7] = system: IFNg producing CD8^+ T (Tc1) cells; details: naïve mice; cited from earlier work
[8] = system: pTh17 cells; assay: Induction of pTh17 cells in secondary lymphoid organs of CTX-treated animals; format: in vivo
From the text: The reasons for these differences were however unknown, and the inventors pursued their research to identify the factor(s) responsible for the immunogenic properties of the murine strain EH13144 and the human clones IGR4, IGR7 and IGR11, in order to derive new molecules or microorganisms useful in the treatment of cancer.

[9] = system: MCA-205 sarcoma; assay: MCA-205 sarcoma growth in FMT-treated mice, CTX plus oral gavage with E. hirae strains; format: in vivo; details: summary of the characteristics of the strains; with CTX, MCA205 sarcoma
Procedure: FIG. 1. Experimental setting. (A) Mice are treated with broad spectrum antibiotics (streptomycin, colistin, ampicillin and vancomycine) for 3 days before performing Fecal Microbiota Transplantation (FMT). 14 days post-FMT, MCA-205 sarcoma cell lines are inoculated in the right flank of mice (8.10^5 cells per mice). […] (B) Non FMT-treated SPF mice are used as control.
FIG. 2. Dysbiosis by FMT BC patient 1: Effectiveness of E. hirae 13144 to restore CTX-mediated antitumor effects. […] (C) Tumor growth curves of MCA-205 sarcoma in FMT-treated mice after oral gavage with strain E. hirae 13144 or NaCl as control. 2 independent experiments are depicted. (D) Overall survival of FMT-treated, MCA-205 sarcoma bearing mice treated with CTX or NaCl after oral gavage with strain E. hirae 13144. A typical survival curve is depicted for six mice per group. (E) Concatenated data of tumor sizes at day 21 post-CTX from 2 independent experiments are shown.
FIG. 3. […] (C) Tumor growth curves of MCA-205 sarcoma in FMT-treated mice after oral gavage with strain E. hirae 13144 or NaCl as control. 2 independent experiments are depicted. (D) Concatenated data of tumor sizes at day 21 post-CTX from 2 independent experiments are shown.
FIG. 4. […] Tumor growth curves of MCA-205 sarcoma in FMT-treated mice after oral gavage with strain E. hirae 13144 (A), IGR1 (B) or NaCl as control. A typical curve is depicted for six mice per group. (C) Concatenated data of tumor sizes at day 17 post-CTX from 1-2 independent experiments are shown. (D). Comparaison of various strains of E. hirae for their capacity to control tumor growth. […] EH10815 fails to work and that may be related to a mutation residing in TMP2 (see below FIG. 13B).
FIG. 5. […] (A) Tumor surface of MCA-205 sarcoma in FMT-treated mice after oral gavage with strain E. hirae 13144, IGR4, IGR7, Actinomycetes spp (Ao) and injected with 3 cycles of CTX (C) vs NaCl (N). Each dot is one mouse/tumor. (B) Tumor growth curves of MCA-205 sarcoma in SPF mice of the best group, means+SEM of tumor sizes at each time point and tumor sizes at sacrifice (C: CTX). Each dot is one mouse/tumor. Anova statistics indicating significant differences between CTX and the triple combination. (C) Tumor surface of MCA-205 sarcoma in FMT-treated mice after oral gavage with strains EH13144, IGR1, IGR11, Barnesiella or Akkermansia and injected with 3 cycles of CTX. Bacterial strains are used alive (V) or pasteurized (P). For pasteurization, bacteria are incubated 30 min at 70° C. and frozen at −80° C. at least 6 hours.
FIG. 6. […] Tumor growth curves of MCA-205 sarcoma in FMT-treated mice after oral gavage with strain E. hirae 13144 alive (A), pasteurized (B) or NaCl as control. A typical curve is depicted for six mice per group. (C) Concatenated data of tumor sizes at day 17 post-CTX from 3 independent experiments are shown.

Q: Which “prophage 1 and 2 excision from EH13144” value [1] does the source give for CO[C@@]12[C@H](COC(N)=O)C3=C(C(=O)C(C)=C(N)C3=O)N1C[C@@H]1N[C@@H]12 [mitomycin C] here?
A: prophage 1 and 2 excision

Q: Which results are given for “CD8+ T cells from PBMC of six HLA-A2+ healthy volunteers (cells without a defined receptor)”?
A: IFNγ ELISPOT after in vitro stimulation [2]: 50 % of HV; IFNγ ELISPOT after in vitro stimulation [3]: 50 % of HV

Q: Which percentage of splenic CD8+ T cells recognising the tetramer [4] does the source give for “splenic CD8+ T cells of mice gavaged with E. hirae 13144 and treated with CTX (cells without a defined receptor)” here?
A: < 1%

Q: With “Enterococcus hirae 13344 [EH17 (13344), reference compound]” as the compound, how does the “restoration of antibiotic-perturbed anticancer effects of CTX (MCA205 growth)” value [5] read?
A: reduced anticancer effect

Q: What about the “memory Tc1 immune response (IFNγ spots) to BM-DC infected with EH isolates” value ([6]; Example 2, FIG. 10, splenic CD8+ T cells after gavage + CTX, ELISPOT at 24 hrs) of the same compound?
A: failed to do so

Q: What about the “TC1 response against TMP1 in mice gavaged with the strain (IFNγ ELISpot)” value ([6]; Example 12, FIG. 27E) of the same compound?
A: unable to do so

Q: And the “immunogenic and oncomicrobiotic properties of the isolate” value [7]?
A: no immunogenic nor oncomicrobiotic properties

Q: And the “capacity to induce pTh17 cells in secondary lymphoid organs” value [8]?
A: did not

Q: What about the Anti-tumor effect [9] of the same compound?
A: No
